Results reported in patent publication US7820640B2, “Methods for treating hearing loss” (Sound Pharmaceuticals Incorporated, priority 2002, dated 2010).
“And” between values parts separate entries of the source, which are not always exact repeats. Equal entries are not always repeated.

What was measured:
Format in all cases: in vivo, rat
[1] = test system: Fisher-344 rats exposed to 110-115 dB noise at 4-16 kHz for 4 hours; assay: ABR threshold shift after a single noise exposure (Example 1); details: for difference in ABR threshold shifts between control and treated rats: 4-16 kHz click stimulus, ebselen 16 mg/kg
Experimental: (§1) Noise exposure paradigm: 8-week old female Fisher-344 rats were exposed to 110-115 dB noise at 4-16 kHz for 4 hours.
Physiologic analyses: The auditory evoked brainstem response (ABR) was used to assess hearing in each ear in each animal before and after exposure to noise using equipment from Intelligent Hearings System. ABR generated with a click stimulus (broad spectrum stimulus, 4-16 kHz) was measured in 5 dB intervals. Animals were re-evaluated evaluated at 1 day, 1 week, 2 weeks, and 3 weeks post noise exposure. ABR changes measured 1 day post noise exposure are considered to represent a temporary threshold shift (TTS); ABR changes measured 3 weeks post noise exposure are considered to represent a permanent threshold shift (PTS).
(§2) Dosing of Otoprotectants: Ebselen was dissolved at 4 mg/mL in 10% DMSO and administered to rats at 16 mg/kg. N-acetyl-cysteine was dissolved at 100 mg/mL in saline and was administered to rats at 325 mg/kg. About 0.5 ml of ebselen solution or N-acetyl-cysteine solution was injected intra-peritoneally or delivered by oral gavage twice daily the day prior to, the day of, and the day following exposure to noise. Control animals were dosed on an identical schedule with vehicle (10% DMSO) only.
Statistical analysis: All experiments were performed with four rats per study group, and measuring each ear independently before and after noise exposure. Data was collected in blinded studies. Statistical analyses were performed by analysis of variance (ANOVA) between study groups.

[2] = test system: outer hair cells in cochlea of noise-exposed Fisher-344 rats; assay: Cochlear hair cell counts after noise exposure (Example 1); details: for physiologic protection from noise-induced hearing loss and hair cell loss: Example 1 conclusion, ebselen 16 mg/kg, N-acetyl-cysteine 325 mg/kg
Experimental: as §1
Morphologic analyses: Hair cell counts in cochlea from test animals following noise exposure and physiologic evaluation using ABR were determined by carefully dissecting cochlea to obtain inner ear sensory epithelia. The tissues were stained with fluorescein-labeled phalloidin (specific for actin filaments, which are abundant in hair cells) and 4,6-diamidino-2-phenylindole (DAPI; specific for the DNA in the nucleus in cells). Samples were then mounted on microscope slides and viewed with epifluorescence to determine the extent of hair cell loss and retention. The correlation between physiologic data (ABR) and morphological data (hair cell counts) allows for confirmation of the protective effects of otoprotectants of the invention.
as §2

[3] = test system: Fisher-344 rats exposed to 110-115 dB noise at 4-16 kHz for 4 hours; assay: ABR permanent threshold shift, ebselen and allopurinol alone or combined (Example 2); details: for difference in ABR threshold shifts between control and treated rats: 16 mg/kg individually, combination 8 mg/kg each, highly significant = p<0.01; for protection from both temporary and permanent thresholds shifts: ABR, rats exposed to noise, alone or in combination; for reductions in PTS compared with controls: three weeks after noise exposure, intra-peritoneal injection at 16 mg/kg individually
Experimental: Noise exposure paradigm: 8-10 week old female Fisher-344 rats were exposed to 110-115 dB noise at 4-16 kHz for 4 hours.
Physiologic analyses: ABR generated with a click stimulus (broad spectrum stimulus, 4-16 kHz), and with tone stimuli at frequencies of 4 kHz, 8 kHz, 12 kHz, and 16 kHz, was measured in 5 dB intervals, as described in EXAMPLE 1. Animals were tested before and at 3 weeks post noise exposure to assess PTS.
Dosing of compounds: Ebselen was dissolved at 4 mg/ml in 10% DMSO and allopurinol was dissolved at 4 mg/ml in water. Ebselen and allopurinol were administered to rats at an individual dose of 16 mg/kg or at a combined dose of 8 mg/kg each. About 0.5 ml of ebselen solution, allopurinol solution, or ebselen/allopurinol solution was injected intra-peritoneally or delivered by oral gavage twice daily the day prior to, the day of, and the day following exposure to noise. Control animals were dosed on an identical schedule with vehicle only.
(§3) Statistical analysis: All experiments were performed with four rats per study group, and measuring each ear independently before and after noise exposure. Data was collected in blinded studies. Statistical analyses were performed by ANOVA between study groups.

[4] = test system: Fisher-344 rats exposed to 110 dB noise at 4-16 kHz for 4 hours two times three weeks apart; assay: ABR threshold shift after repeated noise exposure (Example 3); details: 16 mg/kg; for difference in ABR threshold shifts between control and treated rats: 3 weeks after two exposures to 110 dB noise
Experimental: (§4) Noise exposure paradigm: 8-week old female Fisher-344 rats were exposed to 110 dB noise at 4-16 kHz for 4 hours two times three weeks apart.
Physiologic analyses: ABR generated with tone stimuli at frequencies of 4 kHz, 8 kHz, 12 kHz, and 16 kHz, was measured in 5 dB intervals, as described in EXAMPLE 1. […]
(§5) Dosing of Ebselen: Ebselen was dissolved at 4 mg/mL in 10% DMSO and administered to rats at a dose of 16 mg/kg. About 0.5 ml of ebselen solution was injected intra-peritoneally or delivered by oral gavage twice daily the day prior to, the day of, and the day following each exposure to noise. Control animals were dosed on an identical schedule with vehicle only.
as §3

[5] = test system: outer hair cells in cochlea of repeatedly noise-exposed Fisher-344 rats; assay: Cochlear hair cell counts after repeated noise exposure (Example 3); details: 16 mg/kg
Experimental: as §4
Morphologic analyses: Hair cell counts in cochlea from test animals following noise exposure and physiologic evaluation using ABR were determined as described in EXAMPLE 1.
as §5

[6] = 1 week post noise, N-acetyl-cysteine 325 mg/kg, highly significant = p<0.01, significant = p<0.05
[7] = 2 weeks post noise, N-acetyl-cysteine 325 mg/kg, highly significant = p<0.01, significant = p<0.05
[8] = 3 weeks post noise, N-acetyl-cysteine 325 mg/kg, significant = p<0.05
[9] = 1 day post noise (115 dB, 4-16 kHz, 4 h), N-acetyl-cysteine 325 mg/kg twice daily, highly significant = p<0.01, significant = p<0.05
[10] = 4 kHz stimulus, 3 weeks after noise
[11] = click stimulus, 3 weeks after 115 dB, 4-16 kHz noise for 4 h

| SMILES | difference in ABR threshold shifts between control and treated rats [1, 6] | difference in ABR threshold shifts between control and treated rats [1, 7] | difference in ABR threshold shifts between control and treated rats [1, 8] | difference in ABR threshold shifts between control and treated rats [1, 9] | physiologic protection from noise-induced hearing loss and hair cell loss [2] | difference in ABR threshold shifts between control and treated rats [3, 10] | protection from both temporary and permanent thresholds shifts [3] | difference in ABR threshold shifts between control and treated rats [3, 11] | reductions in PTS compared with controls [3] | further results |
| --- | --- | --- | --- | --- | --- | --- | --- | --- | --- | --- |
| CC(=O)N[C@@H](CS)C(=O)O [N-acetyl-cysteine, N-acetyl-L-Cysteine] | significant | significant | significant | significant | physiologic protection | – | – | – | – | reduction in TTS ([1]; click stimulus, all time points after noise exposure, 325 mg/kg): significant reduction |
| Oc1ncnc2[nH]ncc12 [allopurinol, 4-hydroxypyrazolo[3,4-d]pyrimidine] | – | – | – | – | – | highly significant | significant protection | highly significant | significant reductions | difference in ABR threshold shifts between control and treated rats ([3]; 16 kHz stimulus, 3 weeks after noise): highly significant; protection from noise-induced hearing loss and hair cell loss ([3]; statement in Example 1 referring to EXAMPLE 2): provide protection |
| O=c1c2ccccc2[se]n1-c1ccccc1 [ebselen, 2-phenyl-1,2-benzoisoselenazol-3(2H)-one] | highly significant | highly significant | significant | highly significant | physiologic protection | highly significant | significant protection | highly significant | significant reductions | reduction in TTS and PTS compared to control animals (fold) ([1]; click stimulus, 16 mg/kg): at least two-fold; reduction in TTS (temporary threshold shift) compared with controls ([1]; click stimulus, one day after noise exposure, 16 mg/kg): highly significant reduction; reduction in PTS (permanent threshold shift) compared with controls ([1]; click stimulus, three weeks after noise exposure, 16 mg/kg): significant reduction; PTS of a treated animal ([1]; single ebselen-treated animal, control animal 15 dB PTS): 0 dB; preservation of outer hair cells ([2]; after noise exposure, control animal had almost complete loss of outer hair cells): preservation of most outer hair cells; difference in ABR threshold shifts between control and treated rats ([4]; 8 kHz stimulus, p<0.01): highly significant; difference in ABR threshold shifts between control and treated rats ([4]; 16 kHz stimulus, p<0.05): significant; reduction in TTS compared with controls ([4]; 1 day after repeated noise exposures): significant reduction; PTS compared to controls ([4]; three weeks after repeated noise exposures): significantly reduced; number of outer hair cells lost ([5]; individual rats B and D, two exposures to 110 dB noise, control rats A and C lost 401 and 246): 90 and 56; hair cell loss in cochlea compared to the control group ([5]; repeated noise exposure): less hair cell loss |
